The source made the active and inactive calls. No cut-off for these calls is given here.
What was measured:
[1] = Cytotoxicity against rat PC-12 cells assessed as cell viability at 30 uM by MTT assay relative to control; type: cell-based; conditions: read-out: Activity
[2] = Apparent permeability from apical to basolateral side in MDCK2-MDR1 measured upto 120 mins; type: ADME, Canis lupus familiaris; conditions: dog, mdck-ii, 2 h
BV-2 [3] = experiment: Antiinflammatory activity in LPS-stimulated mouse BV-2 cells assessed as decrease in IL-1beta level at 1 to 10 uM preincubated for 1 hr followed by LPS addition measured after 24 hrs by ELISA; type: functional, cell-based; conditions: dose 1-10 µM, time 25.0 hrs
BV-2 [4] = experiment: Anti-neuroinflammation in mouse BV2 cells assessed as inhibition of LPS-induced NO production preincubated for 1 hr followed by LPS addition measured after 24 hrs by Griess reagent based assay; type: functional, cell-based
SH-SY5Y = experiment: Inhibition of H2O2-induced intracellular ROS production in human SH-SY5Y cells pretreated for 6 hrs followed by H2O2 addition measured after 18 hrs by DCFH-DA assay; type: functional, cell-based; conditions: dose 1-50 µM, time 24.0 hrs
[5] = biological target: T1, Glycogen synthase kinase-3 beta (Homo sapiens, UniProt P49841); experiment: Inhibition of GSK3beta (unknown origin) measured after 40 mins by ADP-Glo assay
Target sequence in this assay (P49841 whole entry): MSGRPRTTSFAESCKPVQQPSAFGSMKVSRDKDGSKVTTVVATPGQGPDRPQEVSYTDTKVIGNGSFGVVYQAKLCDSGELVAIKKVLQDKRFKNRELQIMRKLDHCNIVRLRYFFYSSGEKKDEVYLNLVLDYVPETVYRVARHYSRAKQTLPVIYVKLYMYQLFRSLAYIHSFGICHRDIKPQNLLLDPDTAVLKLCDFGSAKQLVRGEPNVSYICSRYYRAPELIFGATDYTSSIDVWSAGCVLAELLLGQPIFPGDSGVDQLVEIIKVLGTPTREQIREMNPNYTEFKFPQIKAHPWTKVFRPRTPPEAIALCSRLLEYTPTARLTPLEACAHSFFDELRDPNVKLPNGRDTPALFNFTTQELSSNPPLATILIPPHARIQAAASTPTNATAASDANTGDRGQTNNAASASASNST

[6] = Cytotoxicity against human L-02 cells assessed as decreased cell viability at 50 uM after 24 hrs by MTT assay relative to control; type: cell-based, L02; conditions: read-out: INH
[7] = Cytotoxicity against rat PC-12 cells assessed as cell viability at 50 uM by MTT assay relative to control; type: cell-based; conditions: read-out: Activity
HepG2 [8] = experiment: Increase in glucose consumption in human HepG2 cells at 20 uM after 24 hrs by glucose oxidase assay (reference value: 1.36 mM); type: functional
[9] = Apparent permeability from basolateral to apical side in MDCK2-MDR1 measured upto 120 mins; type: ADME, Canis lupus familiaris, MDCK-II; conditions: dog
BV-2 [10] = experiment: Antiinflammatory activity in LPS-stimulated mouse BV-2 cells assessed as decrease in TNF-alpha level at 1 to 10 uM preincubated for 1 hr followed by LPS addition measured after 24 hrs by ELISA; type: functional, cell-based; conditions: dose 1-10 µM, time 25.0 hrs
PC-12 [11] = experiment: Neuroprotective activity against H2O2-induced cytotoxicity in rat PC12 cells assessed as increase in cell viability at 30 uM preincubated for 3 hrs followed by H2O2 addition and measured after 24 hrs by MTT assay (reference value: 24.8 to 41.7%); type: functional
[12] = biological target: T1, Glycogen synthase kinase-3 beta; experiment: Inhibition of GSK-3beta in human SH-SY5Y cells assessed as decrease in amyloid beta-induced Tau hyperphosphorylation at Ser396 pretreated for 1 hr followed Amyloid beta addition measured after 6 hrs by Western blot analysis; type: cell-based; conditions: dose 5-15 µM, time 7.0 hrs
Target sequence in this assay (P49841 whole entry, looked up): as the sequence (P49841 whole entry) above

BV-2 [13] = experiment: Antiinflammatory activity in LPS-stimulated mouse BV-2 cells assessed as decrease in iNOS level at 1 to 10 uM preincubated for 1 hr followed by LPS addition measured after 24 hrs by Western blot analysis; type: functional, cell-based; conditions: dose 1-10 µM, time 25.0 hrs
PC-12 [14] = experiment: Inhibition of H2O2-induced intracellular ROS production in rat PC-12 cells pretreated for 6 hrs followed by H2O2 addition measured after 18 hrs by DCFH-DA assay; type: functional, cell-based; conditions: dose 1-50 µM, time 24.0 hrs
[15] = Antioxidant activity assessed as DPPH radical scavenging activity after 2 hrs by microplate method; type: functional; conditions: dose 1-1000 µM
PC-12 [16] = experiment: Neuroprotective activity against H2O2-induced cytotoxicity in rat PC12 cells assessed as increase in cell viability at 10 uM preincubated for 3 hrs followed by H2O2 addition and measured after 24 hrs by MTT assay (reference value: 24.8 to 41.7%); type: functional
[17] = Efflux ratio of apparent permeability across basolateral to apical membrane to apical to basolateral membrane in MDCK2-MDR1 measured upto 120 mins; type: ADME, tissue-based, Canis lupus familiaris, MDCK-II; conditions: dog
BV-2 [18] = experiment: Antiinflammatory activity in LPS-stimulated mouse BV-2 cells assessed as decrease in cox-2 level at 1 to 10 uM preincubated for 1 hr followed by LPS addition measured after 24 hrs by Western blot analysis; type: functional, cell-based; conditions: dose 1-10 µM, time 25.0 hrs
HepG2 [19] = experiment: Cytotoxicity against human HepG2 cells assessed as cell viability at 10 to 50 uM after 24 hrs by MTT assay; type: cell-based; conditions: hepg2, 24 h, dose 10-50 µM
HepG2 [20] = experiment: Increase in glucose consumption in human HepG2 cells at 20 uM after 24 hrs by glucose oxidase assay; type: functional, cell-based
[21] = Effect on body weight in C57BL mouse model of scopolamine-induced memory impairment model at 10 to 30 mg/kg, po administered for 7 days; type: ADME, organism-based; conditions: in vivo, 168 h, dose 10-30 mg/kg, time 7 day
[22] = Effect on swimming speed in C57BL mouse model of scopolamine-induced memory impairment model at 10 to 30 mg/kg, po administered for 7 days; type: ADME, organism-based; conditions: in vivo, 168 h, dose 10-30 mg/kg, time 7 day
L02 = experiment: Cytotoxicity against human L-02 cells assessed as decreased cell viability at 50 uM after 24 hrs by MTT assay; type: cell-based; conditions: l02, 24 h
Mus musculus [23] = experiment: Cognitive enhancing effect in C57BL mouse model of scopolamine-induced memory impairment assessed as number of virtual platform crossing at 10 to 30 mg/kg, po administered for 7 days and measured after 30 mins at 5th day of training session by Morris water maze test; type: functional, organism-based; conditions: dose 10-30 mg/kg, time 7.0 day
Mus musculus [24] = experiment: Cognitive enhancing effect in orally dosed C57BL mouse model of scopolamine-induced memory impairment assessed as escape latency administered for 7 days and measured after 30 mins at 4th day of training session by Morris water maze test; type: functional, organism-based; conditions: dose 10-30 mg/kg, time 7.0 day
Mus musculus [25] = experiment: Cognitive enhancing effect in C57BL mouse model of scopolamine-induced memory impairment assessed as time in target quadrant at 10 to 30 mg/kg, po administered for 7 days and measured after 30 mins at 5th day of training session by Morris water maze test; type: functional, organism-based; conditions: dose 10-30 mg/kg, time 7.0 day

Compound | viability at 30 µM [1] | permeability [2] | inhibition (BV-2 [3]) | IC50 (BV-2 [4]) | inhibition (SH-SY5Y) | IC50 [5] | viability at 50 µM [7] | Activity (HepG2 [8]) | inhibition (BV-2 [10]) | Activity (PC-12 [11]) | inhibition [12] | inhibition (BV-2 [13]) | inhibition (PC-12 [14]) | Activity [15] | Activity (PC-12 [16]) | inhibition (BV-2 [18]) | Activity (HepG2 [19]) | other results
CC(=O)c1ccc(S(=O)(=O)Nc2ccc(-c3nc(-c4ccnc(Nc5ccc(OC(F)(F)F)cc5)c4)no3)cc2)cc1 | 99.1% | 1.31 10^-5 cm/s | Active | 470 nM | Dose-dependent effect | 1020 nM | 98.1% | 3.28 mM | Active | 68.6% | Dose-dependent effect | Active | Dose-dependent effect | Dose-dependent effect | 57.1% | Active | Non-Toxic | cytotoxicity at 24 h, 50 µM [6]: 20%; permeability ([9]; mdck-ii, 2 h): 1.66 10^-5 cm/s; Ratio ([17]; mdck-ii, 2 h): 1.27
CC(C)(C)c1ccc(S(=O)(=O)Nc2ccc(-c3nc(-c4ccnc(Nc5cccc(Cl)c5)c4)no3)cc2)cc1 | 99.2% | 1.89 10^-5 cm/s | Active | 6940 nM | Dose-dependent effect | 190 nM | 97.2% | 3.43 mM | Active | 64.9% | Dose-dependent effect | Active | Dose-dependent effect | Dose-dependent effect | 54.3% | Active | Non-Toxic | Activity (HepG2 [20]): Active; Activity [21]: Non-Toxic; Activity [22]: Non-Toxic; Activity (L02): Non-Toxic; Papp B→A at 2 h ([9]; MDCK-MDR1, read-out: permeability): 19.3 ×10⁻⁶ cm/s; Activity (Mus musculus [23]): Active; Activity (Mus musculus [24]): Dose-dependent effect; Activity (Mus musculus [25]): Active; efflux ratio at 2 h ([17]; MDCK-MDR1): 1.02
